The CheMixHub viscosity set
± gives the uncertainty stated by the source.

Assay: xn = mol fraction of the nth substance listed

Compound: CCCCN + Cc1cccc(C)c1
- viscosity (303.15 K, 101 kPa, x1 = 0.0824): 0.525 ± 0.005 mPa·s
- viscosity (303.15 K, 101 kPa, x1 = 0.1495): 0.516 ± 0.005 mPa·s
- viscosity (303.15 K, 101 kPa, x1 = 0.2739): 0.497 ± 0.005 mPa·s
- viscosity (303.15 K, 101 kPa, x1 = 0.387): 0.484 ± 0.005 mPa·s
- viscosity (303.15 K, 101 kPa, x1 = 0.4543): 0.476 ± 0.005 mPa·s
- viscosity (303.15 K, 101 kPa, x1 = 0.5525): 0.469 ± 0.005 mPa·s
- viscosity (303.15 K, 101 kPa, x1 = 0.6484): 0.462 ± 0.005 mPa·s
- viscosity (303.15 K, 101 kPa, x1 = 0.7553): 0.457 ± 0.005 mPa·s
- viscosity (303.15 K, 101 kPa, x1 = 0.816): 0.453 ± 0.005 mPa·s
- viscosity (303.15 K, 101 kPa, x1 = 0.8978): 0.448 ± 0.005 mPa·s
- viscosity (303.15 K, 101 kPa, x1 = 0.9469): 0.445 ± 0.005 mPa·s

Compound: O=C(O)[C@H](O)[C@@H](O)C(=O)O + O
- viscosity (298.2 K, 101.33 kPa, x1 = 0.00125): 0.9157 ± 0.023 mPa·s
- viscosity (298.2 K, 101.33 kPa, x1 = 0.002751): 0.942 ± 0.023 mPa·s
- viscosity (298.2 K, 101.33 kPa, x1 = 0.00453): 0.9725 ± 0.024 mPa·s
- viscosity (298.2 K, 101.33 kPa, x1 = 0.00652): 0.9964 ± 0.025 mPa·s
- viscosity (298.2 K, 101.33 kPa, x1 = 0.008655): 1.043 ± 0.026 mPa·s
- viscosity (298.2 K, 101.33 kPa, x1 = 0.01037): 1.046 ± 0.026 mPa·s
- viscosity (298.2 K, 101.33 kPa, x1 = 0.01172): 1.088 ± 0.027 mPa·s

Compound: CCCCC(CC)COP(=O)(OCC(CC)CCCC)OCC(CC)CCCC (centres undefined) + CCCCCCCC
- viscosity (298.15 K, 101 kPa, x1 = 0.098): 0.83 ± 0.007 mPa·s
- viscosity (298.15 K, 101 kPa, x1 = 0.1989): 1.287 ± 0.01 mPa·s
- viscosity (298.15 K, 101 kPa, x1 = 0.2979): 1.852 ± 0.014 mPa·s
- viscosity (298.15 K, 101 kPa, x1 = 0.381): 2.52 ± 0.019 mPa·s
- viscosity (298.15 K, 101 kPa, x1 = 0.489): 3.555 ± 0.027 mPa·s
- viscosity (298.15 K, 101 kPa, x1 = 0.5902): 4.707 ± 0.035 mPa·s
- viscosity (298.15 K, 101 kPa, x1 = 0.693): 6.118 ± 0.044 mPa·s
- viscosity (298.15 K, 101 kPa, x1 = 0.7952): 7.688 ± 0.054 mPa·s
- viscosity (298.15 K, 101 kPa, x1 = 0.9044): 9.668 ± 0.067 mPa·s
- viscosity (303.15 K, 101 kPa, x1 = 0.098): 0.773 ± 0.006 mPa·s
- viscosity (303.15 K, 101 kPa, x1 = 0.1989): 1.183 ± 0.009 mPa·s
- viscosity (303.15 K, 101 kPa, x1 = 0.2979): 1.674 ± 0.013 mPa·s
- viscosity (303.15 K, 101 kPa, x1 = 0.381): 2.264 ± 0.017 mPa·s
- viscosity (303.15 K, 101 kPa, x1 = 0.489): 3.136 ± 0.024 mPa·s
- viscosity (303.15 K, 101 kPa, x1 = 0.5902): 4.108 ± 0.031 mPa·s
- viscosity (303.15 K, 101 kPa, x1 = 0.693): 5.242 ± 0.039 mPa·s
- viscosity (303.15 K, 101 kPa, x1 = 0.7952): 6.565 ± 0.047 mPa·s
- viscosity (303.15 K, 101 kPa, x1 = 0.9044): 8.204 ± 0.057 mPa·s
- viscosity (308.15 K, 101 kPa, x1 = 0.098): 0.722 ± 0.006 mPa·s
- viscosity (308.15 K, 101 kPa, x1 = 0.1989): 1.074 ± 0.009 mPa·s
- viscosity (308.15 K, 101 kPa, x1 = 0.2979): 1.498 ± 0.012 mPa·s
- viscosity (308.15 K, 101 kPa, x1 = 0.381): 2.016 ± 0.016 mPa·s
- viscosity (308.15 K, 101 kPa, x1 = 0.489): 2.759 ± 0.021 mPa·s
- viscosity (308.15 K, 101 kPa, x1 = 0.5902): 3.592 ± 0.027 mPa·s
- viscosity (308.15 K, 101 kPa, x1 = 0.693): 4.585 ± 0.034 mPa·s
- viscosity (308.15 K, 101 kPa, x1 = 0.7952): 5.632 ± 0.041 mPa·s
- viscosity (308.15 K, 101 kPa, x1 = 0.9044): 6.964 ± 0.049 mPa·s

Compound: Cc1ccncc1 + CC(C)(C)O
- viscosity (298.15 K, 101.33 kPa, x2 = 0.0724): 0.8901 ± 0.011 mPa·s
- viscosity (298.15 K, 101.33 kPa, x2 = 0.2166): 0.9887 ± 0.011 mPa·s
- viscosity (298.15 K, 101.33 kPa, x2 = 0.2902): 1.056 ± 0.011 mPa·s
- viscosity (298.15 K, 101.33 kPa, x2 = 0.3416): 1.122 ± 0.012 mPa·s
- viscosity (298.15 K, 101.33 kPa, x2 = 0.507): 1.386 ± 0.013 mPa·s
- viscosity (298.15 K, 101.33 kPa, x2 = 0.606): 1.641 ± 0.014 mPa·s
- viscosity (298.15 K, 101.33 kPa, x2 = 0.6484): 1.777 ± 0.015 mPa·s
- viscosity (298.15 K, 101.33 kPa, x2 = 0.7197): 2.085 ± 0.017 mPa·s
- viscosity (298.15 K, 101.33 kPa, x2 = 0.8): 2.537 ± 0.02 mPa·s
- viscosity (298.15 K, 101.33 kPa, x2 = 0.8603): 2.959 ± 0.022 mPa·s

Compound: O=C(O)C(Cl)(Cl)Cl + CCOC(C)=O
- viscosity (298.15 K, 101 kPa, x1 = 0.1118): 0.5878 ± 0.016 mPa·s
- viscosity (298.15 K, 101 kPa, x1 = 0.184): 0.7309 ± 0.019 mPa·s
- viscosity (298.15 K, 101 kPa, x1 = 0.2807): 1.001 ± 0.026 mPa·s
- viscosity (298.15 K, 101 kPa, x1 = 0.3846): 1.449 ± 0.038 mPa·s
- viscosity (298.15 K, 101 kPa, x1 = 0.4878): 2.176 ± 0.058 mPa·s
- viscosity (298.15 K, 101 kPa, x1 = 0.6142): 3.467 ± 0.092 mPa·s
- viscosity (298.15 K, 101 kPa, x1 = 0.7008): 4.709 ± 0.13 mPa·s

Compound: CCCCN + O=C1CCCCC1
- viscosity (298.15 K, 101 kPa, x2 = 0.0765): 0.623 ± 0.005 mPa·s
- viscosity (298.15 K, 101 kPa, x2 = 0.157): 0.754 ± 0.006 mPa·s
- viscosity (298.15 K, 101 kPa, x2 = 0.2421): 0.903 ± 0.007 mPa·s
- viscosity (298.15 K, 101 kPa, x2 = 0.3319): 1.06 ± 0.008 mPa·s
- viscosity (298.15 K, 101 kPa, x2 = 0.427): 1.223 ± 0.01 mPa·s
- viscosity (298.15 K, 101 kPa, x2 = 0.5278): 1.392 ± 0.011 mPa·s
- viscosity (298.15 K, 101 kPa, x2 = 0.6349): 1.563 ± 0.012 mPa·s
- viscosity (298.15 K, 101 kPa, x2 = 0.7488): 1.725 ± 0.013 mPa·s
- viscosity (298.15 K, 101 kPa, x2 = 0.8702): 1.88 ± 0.014 mPa·s
- viscosity (303.15 K, 101.33 kPa, x1 = 0.1251): 2.752 ± 0.075 mPa·s
- viscosity (303.15 K, 101.33 kPa, x1 = 0.2012): 2.984 ± 0.082 mPa·s
- viscosity (303.15 K, 101.33 kPa, x1 = 0.2448): 3.075 ± 0.084 mPa·s
- viscosity (303.15 K, 101.33 kPa, x1 = 0.3617): 3.092 ± 0.085 mPa·s
- viscosity (303.15 K, 101.33 kPa, x1 = 0.5296): 2.811 ± 0.077 mPa·s
- viscosity (303.15 K, 101.33 kPa, x1 = 0.6105): 2.592 ± 0.071 mPa·s
- viscosity (303.15 K, 101.33 kPa, x1 = 0.7626): 1.94 ± 0.053 mPa·s
- viscosity (303.15 K, 101.33 kPa, x1 = 0.887): 1.202 ± 0.033 mPa·s
